Series [1] deals with guinea-pig urinary bladder (GPB) cells. Put plainly: Membrane hyperpolarization (MHP) assay, potassium channel opening activity, DiBAC(4)3 / FLIPR. The class given is cell-based. The conditions noted are these: Cavia porcellus; for Emax: maximal steady-state hyperpolarization in GPB cells, relative to 10 μM P1075 (100%), read-out: Maximal Response (% P1075); for EC50: membrane hyperpolarization in GPB cells. As to the method:
Compounds were evaluated for potassium channel opening activity using primary cultured guinea-pig urinary bladder (GPB) cells.
For the preparation of urinary bladder smooth muscle cells, urinary bladders were removed from male guinea-pigs (Hartley, Charles River, Wilmington, Mass.) weighing 300-400 g and placed in ice-cold Ca^2+-free Krebs solution (Composition, mM: KCl, 2.7; KH2PO4, 1.5; NaCl, 75; Na2HPO4, 9.6; Na2HPO4·7H2O, 8; MgSO4, 2; glucose, 5; HEPES, 10; pH 7.4). Cells were isolated by enzymatic dissociation as previously described with minor modifications (Klockner, U. and Isenberg, G., Pflugers Arch. (1985), 405, 329-339), hereby incorporated by reference. The bladder was cut into small sections and incubated in 5 mL of the Kreb's solution containing 1 mg/mL collagenase (Sigma, St. Louis, Mo.) and 0.2 mg/mL pronase (Calbiochem, La Jolla, Calif.) with continuous stirring in a cell incubator for 30 minutes. The mixture was then centrifuged at 1300×g for 5 minutes, and the pellet resuspended in Dulbecco's PBS (GIBCO, Gaithersburg, Md.) and recentrifuged to remove residual enzyme. The cell pellet was resuspended in 5 mL growth media (composition: Dulbecco's modified Eagle's medium supplemented with 10% fetal bovine serum, 100 units/mL penicillin, 100 units/mL streptomycin and […] amphotericin B) and further dissociated by pipetting the suspension through a flame-polished Pasteur pipette and passing it through a polypropylene mesh membrane (Spectrum, Houston, Tex.). The cell density was adjusted to 100,000 cells/mL by resuspension in growth media. Cells were plated in clear-bottomed black 96-well plates (Packard) for membrane potential studies at a density of 20,000 cells/well and maintained in a cell incubator with 90% air: 10% CO2 until confluent. Cells were confirmed to be of smooth muscle type by cytoskeletal staining using a monoclonal mouse anti human-α-smooth muscle actin (Biomeda, Foster City, Calif.)
Functional activity at potassium channels was measured by evaluating changes in membrane potential using the bis-oxonol dye DiBAC(4)3 (Molecular Probes) in a 96-well cell-based kinetic assay system, Fluorescent Imaging Plate Reader (FLIPR) (K. S. Schroeder et al., J. Biomed. Screen., v. 1 pp. 75-81 (1996)), hereby incorporated by reference. DiBAC(4)3 is an anionic potentiometric probe which partitions between cells and extracellular solution in a membrane potential-dependent manner. With increasing membrane potential (for example, K^+ depolarization), the probe further partitions into the cell; this is measured as an increase in fluorescence due to dye interaction with intracellular lipids and proteins. Conversely, decreasing membrane potential (hyperpolarization by potassium channel openers) evokes a decrease in fluorescence.
Confluent guinea-pig urinary bladder cells cultured in black clear-bottomed 96-well plates were rinsed twice with […] assay buffer (composition, mM: HEPES, 20; NaCl, 120; KCl, 2; CaCl2, 2; MgCl2, 1; glucose, 5; pH 7.4 at 25° C.) containing 5 μM DiBAC(4)3 and incubated with […] of the buffer in a cell incubator for 30 minutes at 37° C. to ensure dye distribution across the membrane. After recording the baseline fluorescence for 5 minutes, the reference or test compounds, prepared at 10 times the concentration in the assay buffer, were added directly to the wells. Changes in fluorescence were monitored for an additional 25 minutes. Hyperpolarization responses were corrected for any background noise and were normalized to the response observed with 10 μM of the reference compound P1075 (assigned as 100%), a potent opener of smooth muscle KATP channels (Quast et al., Mol. Pharmacol., v. 43 pp. 474-481 (1993)), hereby incorporated by reference.
Routinely, five concentrations of P1075 or test compounds (log or half-log dilutions) were evaluated and the maximal steady-state hyperpolarization values (expressed as % relative to P1075) plotted as a function of concentration. […]

Series [2] concerns Landrace pig bladder strips. Put plainly: Functional potassium channel opening activity in isolated bladder strips (field-stimulated twitch). The conditions noted are these: for Index: ED50 of P1075 divided by ED50 of test agonist in a given tissue, averaged; for EC50: Sus scrofa, negative logarithm of ED50, Landrace pig bladder strips, read-out: pD2 (converted); for Efficacy (% P1075): maximal efficacy on the stimulated twitch, Landrace pig bladder strips. How it is done:
Compounds were evaluated for functional potassium channel opening activity using tissue strips obtained from Landrace pig bladders.
Landrace pig bladders were obtained from female Landrace pigs of 9-30 kg. Landrace pigs were euthanized with an intraperitoneal injection of pentobarbital solution, Somlethal®, J. A. Webster Inc., Sterling Mass. The entire bladder was removed and immediately placed into Krebs Ringer bicarbonate solution (composition, mM: NaCl, 120; NaHCO3, 20; dextrose, 11; KCl, 4.7; CaCl2, 2.5; MgSO4, 1.5; KH2PO4, 1.2; K2EDTA, 0.01, equilibrated with 5% CO2/95% O2 pH 7.4 at 37° C.). Propranolol (0.004 mM) was included in all of the assays to block β-adrenoceptors. The trigonal and dome portions were discarded. Strips 3-5 mm wide and 20 mm long were prepared from the remaining tissue cut in a circular fashion. The mucosal layer was removed. One end was fixed to a stationary glass rod and the other to a Grass FT03 transducer at a basal preload of 1.0 gram. Two parallel platinum electrodes were included in the stationary glass rod to provide field stimulation of 0.05 Hz, 0.5 milli-seconds at 20 volts. This low frequency stimulation produced a stable twitch response of 100-500 centigrams. Tissues were allowed to equilibrate for at least 60 minutes and primed with 80 mM KCl. A control concentration response curve (cumulative) was generated for each tissue using the potassium channel opener P1075 as the control agonist. […] After a 60 minute rinsing period, a concentration response curve (cumulative) was generated for the test agonist in the same fashion as that used for the control agonist P1075. The maximal efficacy of each compounds (expressed as % relative to P1075) is reported. The amount of agent necessary to cause 50% of the agent's maximal response (ED50) was calculated using “ALLFIT” (DeLean et al., Am. J. Physiol. 235, E97 (1980)), hereby incorporated by reference, and agonist potencies were expressed as pD2 (the negative logarithm). Agonist potencies were also expressed as an index relative to P1075. The index was calculated by dividing the ED50 for P1075 by the ED50 for the test agonist in a given tissue. Each tissue was used for only one test agonist, and the indices obtained from each tissue were averaged to provide an average index of potency.

Series [3] can be described thus: Aqueous solubility, 50 mM NaH2PO4 buffers, reverse-phase HPLC. The class given is physicochemical. The conditions noted are these: aqueous buffer, thermodynamic from solid, shaking 60 hours, room temperature. As to the method:
Aqueous solubilities were determined by shaking 60 hours at room temperature in 50 mM NaH2PO4 buffers at pH's 6.5 and 7.4. Assays were performed using reverse-phase HPLC. The solubilities are expressed in nanomoles per milliliter in Table 4.

Series [4] concerns bladder contractions. The experiment in a line: In-vivo bladder efficacy protocol (isovolumetric contractions model). On the set-up: species or system rat. As to conditions: dose reducing area under the curve of bladder contractions by 30%, iv, anesthetized male CD rats. The text has this: In-vivo bladder efficacy protocol (isovolumetric contractions model)
Male CD rats (400-450 g) were anesthetized with urethane (0.6 g/kg ip+0.6 g/kg sc). The left femoral artery and vein were cannulated with polyethylene (PE-50) tubing for the measurement of arterial pressure and test compound administration respectively. A third polyethylene catheter (PE-60) was inserted 3-4 mm into the apex of the bladder dome and secured using a 5-0 silk purse string suture. The bladder was emptied via this catheter and additionally by applying slight manual pressure on the lower abdomen. The urinary catheter was connected using a Y-tube connector to both a pressure transducer and a syringe pump. […] After the contractions stabilized to a consistent pattern, bladder pressure and arterial pressure were monitored for 20 minutes before and after a dose of the vehicle (equal parts of β-cyclodextrin stock solution (100 g β-cyclodextrin dissolved in 200 ml) and sterile water) alone. […] Mean arterial pressure and area under the curve of the bladder contractions were determined from the respective waveforms using a Modular Instruments, Inc. computerized data acquisition system and averaged over the last ten minutes of each twenty minute period. […]
Example 3, of the present invention (Table 3, FIG. 1), was dosed at 0.01, 0.1 and 1 μmol/kg. The AUC ED30 for Example 3 was determined to be 0.1 μmol/kg.

Setting [5] is: pH 6.5, 50 mM NaH2PO4 buffer, read-out: Aqueous solubility pH 6.5.
Setting [6] is: pH 7.4, 50 mM NaH2PO4 buffer, read-out: Aqueous solubility pH 7.4.

In brackets after ≈: the same amount, converted by molar mass. Where two headings read alike, the source gives them in different places.

As to `O=C1CCC2=C1C(c1ccc(F)c(Br)c1)C1=C(CCC1=O)N2` [Example 1, 8-(3-Bromo-4-fluorophenyl)-2,3,4,5,6,8-hexahydrodicyclopenta[b,e]pyridine-1,7-dione], in series [1], the Emax amounted to 102% and the EC50 was 71 nM. Besides, in series [2], the Index is reported as 0.48, the EC50 was 158 nM and the “Efficacy (% P1075)” value is recorded as 98 % P1075. Further, the solubility – broadly, how much of the substance goes into solution per volume – at 60 h in series [3] (setting [5]) was determined as 205 µM (≈ 74.3 µg/mL). The solubility at 60 h in series [3] (setting [6]) is 227 µM (≈ 82.2 µg/mL).
As for `N#Cc1cccc(C2C3=C(CCC3=O)NC3=C2C(=O)CC3)c1` [Example 2, 8-(3-Cyanophenyl)-2,3,4,5,6,8-hexahydrodicyclopenta[b,e]pyridine-1,7-dione], in series [1], the Emax is 65% and the EC50 was 5300 nM. Moreover, in series [2], the Index stood at 0.017, the EC50 is 6310 nM and the “Efficacy (% P1075)” value came to 96 % P1075. In addition, the solubility at 60 h in series [3] (setting [5]) stood at 1300 µM (≈ 377 µg/mL). The solubility at 60 h in series [3] (setting [6]) was 1290 µM (≈ 375 µg/mL).
With `O=C1CCC2=C1C(c1ccc(Cl)c([N+](=O)[O-])c1)C1=C(CCC1=O)N2` [Example 3, 8-(4-Chloro-3-nitrophenyl)-2,3,4,5,6,8-hexahydrodicyclopenta[b,e]pyridine-1,7-dione], in series [1], the Emax turned out to be 113% and the EC50 came to 53 nM. Besides, in series [2], the Index is recorded as 0.35, the EC50 was 251 nM and the “Efficacy (% P1075)” value is 98 % P1075. For the same molecule, in series [4], the “AUC ED30” value came to 0.1 µmol/kg. Also, in series [3] (setting [5]), the solubility at 60 h stood at 129 µM (≈ 44.5 µg/mL). In series [3] (setting [6]), the solubility at 60 h was 129 µM (≈ 44.5 µg/mL).
On to `O=C1CCC2=C1C(c1cccc([N+](=O)[O-])c1)C1=C(CCC1=O)N2` [Example 4, 8-(3-Nitrophenyl)-2,3,4,5,6,8-hexahydrodicyclopenta[b,e]pyridine-1,7-dione], for which, in series [1], the Emax worked out at 123%. The EC50 in series [1] stood at 340 nM. The results for the solubility at 60 h in series [3] (setting [5]) and in series [3] (setting [6]) were 158 µM (≈ 49 µg/mL) and 164 µM (≈ 50.9 µg/mL), respectively.
As to `O=C1CCC2=C1C(c1ccc(F)c(Cl)c1)C1=C(CCC1=O)N2` [Example 5, 8-(3-Chloro-4-fluorophenyl)-2,3,4,5,6,8-hexahydrodicyclopenta[b,e]pyridine-1,7-dione], in series [1], the Emax is 72% and the EC50 came to 140 nM.
For `O=C1CCC2=C1C(c1ccc(Cl)c(Cl)c1)C1=C(CCC1=O)N2` [Example 6, 8-(3,4-Dichlorophenyl)-2,3,4,5,6,8-hexahydrodicyclopenta[b,e]pyridine-1,7-dione], in series [1], the Emax stood at 94% and the EC50 amounted to 100 nM.
Turning to `O=C1CCC2=C1C(c1ccc3nonc3c1)C1=C(CCC1=O)N2` [Example 7, 8-(2,1,3-benzoxadiazol-5-yl)-2,3,4,5,6,8-hexahydrodicyclopenta[b,e]pyridine-1,7-dione], the melting point (as a rule, the temperature, or range, at which the solid turns liquid) lay within 272 to 273 °C. For the same molecule, in series [1], the Emax was 98% and the EC50 worked out at 130 nM.
Regarding `O=C1CCC2=C1C(c1ccc(F)c(I)c1)C1=C(CCC1=O)N2` [Example 8, 8-(3-Iodo-4-fluorophenyl)-2,3,4,5,6,8-hexahydrodicyclopenta[b,e]pyridine-1,7-dione], in series [1], the Emax worked out at 93% and the EC50 stood at 13 nM.
The matching figures for `O=C1C=CC2=C1C(c1ccc(F)c(Br)c1)C1=C(CCCC1=O)N2` (centres unmarked) [Example 9, 9-(3-bromo-4-fluorophenyl)-5,6,7,9-tetrahydro-1H-cyclopenta[b]quinoline-1,8(4H)-dione]: 100% and 63 nM.
In turn, `CC1=C(C(=O)O)C(c2ccc(F)c(Br)c2)C2=C(CCC2=O)N1` (centres unmarked) [Example 10, 4-(3-bromo-4-fluorophenyl)-2-methyl-5-oxo-4,5,6,7-tetrahydro-1H-cyclopenta[b]pyridine-3-carboxylic acid] returned a melting point of 211 to 214 °C. Moreover, in series [1], the Emax was 104% and the EC50 was 2680 nM.
For the molecule `CCC(C)(C)N=C(NC#N)Nc1cccnc1` [Example P1075, reference compound], in series [2] (10^−9 to 10^−5 M, cumulative, dose dependent), the “Effect on stimulated twitch” value was “completely eliminated the stimulated twitch”.

The record behind these values is patent publication US6518279B2, “Cyclopentanone dihydropyridine compounds useful as potassium channel openers” (Abbott Laboratories, priority 1999, dated 2003).
